Measurements: patent US10227308B2, “Radiolabeled cannabinoid receptor 2 ligand” (Hoffmann-La Roche Inc., priority 2014, dated 2019)
pKd, pKi: −log10 of the molar value.

Key:
human CB1 receptors = target: T1, human CB1 receptors (Homo sapiens, UniProt P21554); test: Radioligand competition binding of [^3H]-CP55940, CHO-K1 cell membranes; conditions: [^3H]-CP55940 0.3 nM, n=6
T1 construct: host or cells: CHO-K1 beta-arrestin cells
Method: (§1) CHO-K1 beta-arrestin cells (DiscoveRx Inc., Fremont, Calif.) expressing human CB1 and human CB2 were cultured in F-12 Nutrient Mixture (HAM) supplemented with 10% FBS, 300 μg ml-1 hygromycin and 800 μg ml-1 geneticin (G418). Cells were incubated in a humidified atmosphere at 37° C. with 5% CO2.
(§2) Stably transfected cells or spleen tissue were homogenized in 15 mmol L-1 Hepes, 0.3 mmol L-1 EDTA, 1 mmol L-1 EGTA, 2 mmol L-1 MgCl2, complete EDTA-free protease inhibitor (Roche Applied Science, Rotkreuz, Switzerland), pH 7.4 using a glass potter and centrifugation at 47,800 g at 4° C. for 30 min. The pellet was then rehomogenized twice in the same buffer and centrifuged (47,800 g, 4° C., 30 min). […]
(§3) For competition binding, membrane preparations were incubated either with 0.3 nM of [^3H]-CP55940 in the presence or absence of increasing concentrations of unlabeled (R^1═CH3) compound of formula (I) or with 1.5 nM compound of formula (I) and increasing amounts of membranes (2.5-80 μg) in the presence or absence of CP55940 (10 μM) for 60 min at 30° C. in a final volume of 0.2 mL of 50 mmol L-1 Tris-HCl, 5 mmol L-1 MgCl2, 2.5 mmol L-1 EGTA, 0.1% fatty acid-free BSA and 1% DMSO, pH 7.4, buffer, gently shaking. […] IC50 values and Hill slopes were determined by a four parameter logistic model using ActivityBase (ID Business Solution, Ltd.).

CB2 receptors [1] = target: T2, CB2 receptors (Homo sapiens, UniProt P34972); test: as above; design: host or cells: CHO-K1 beta-arrestin cells; conditions: [^3H]-CP55940 0.3 nM, n=13
T2 sequence (P34972 whole entry): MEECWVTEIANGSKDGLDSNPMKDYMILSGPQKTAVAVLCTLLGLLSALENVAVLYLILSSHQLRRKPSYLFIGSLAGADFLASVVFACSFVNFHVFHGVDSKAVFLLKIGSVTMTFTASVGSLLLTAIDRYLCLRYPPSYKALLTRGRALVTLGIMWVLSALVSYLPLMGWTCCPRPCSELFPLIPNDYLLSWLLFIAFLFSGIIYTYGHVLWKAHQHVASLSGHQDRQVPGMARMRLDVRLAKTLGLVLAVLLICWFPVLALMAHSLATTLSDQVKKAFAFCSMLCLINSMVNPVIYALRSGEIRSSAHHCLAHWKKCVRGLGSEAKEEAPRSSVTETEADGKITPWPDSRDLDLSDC
Method: as §1, §2, §3

[2] = Radioligand binding using mouse spleen KO (CB2 deficient mice); conditions: mouse spleen tissue from CB2 deficient mice, increasing amounts of membranes
Method: (§4) Stably transfected cells or spleen tissue were homogenized in 15 mmol L-1 Hepes, 0.3 mmol L-1 EDTA, 1 mmol L-1 EGTA, 2 mmol L-1 MgCl2, complete EDTA-free protease inhibitor (Roche Applied Science, Rotkreuz, Switzerland), pH 7.4 using a glass potter and centrifugation at 47,800 g at 4° C. for 30 min. The pellet was then rehomogenized twice in the same buffer and centrifuged (47,800 g, 4° C., 30 min). The final pellet was then resuspended in 75 mmol L-1 Tris, 0.3 mmol L-1 EDTA, 1 mmol L-1 EGTA, 12.5 mmol L-1 MgCl2, 250 mmol L-1 sucrose, pH 7.4 at a protein concentration of 1 to 3 mg mL-1, aliquoted, frozen on dry ice and stored at −80° C.
as §3

CB2 receptors [3] = target: T3, CB2 receptors (Mus musculus, UniProt P47936); test: Radioligand binding (1.5 nM) with increasing amounts of membranes, mouse spleen tissue WT; conditions: 1.5 nM radioligand
T3 construct: from tissue; host or cells: mouse spleen (wild type)
T3 sequence (P47936 whole entry): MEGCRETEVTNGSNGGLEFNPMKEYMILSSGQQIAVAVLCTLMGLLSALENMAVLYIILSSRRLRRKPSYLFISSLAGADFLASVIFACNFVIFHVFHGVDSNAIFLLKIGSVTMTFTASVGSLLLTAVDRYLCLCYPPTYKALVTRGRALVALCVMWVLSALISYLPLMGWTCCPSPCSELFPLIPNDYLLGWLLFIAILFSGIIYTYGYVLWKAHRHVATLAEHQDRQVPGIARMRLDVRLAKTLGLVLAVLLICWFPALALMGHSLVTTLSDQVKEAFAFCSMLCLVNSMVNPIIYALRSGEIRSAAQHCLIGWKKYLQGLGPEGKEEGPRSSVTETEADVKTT
Method: as §4, §3

mouse CB2 receptors = target: T4, mouse CB2 receptors (Mus musculus, UniProt P47936); test: Radioligand saturation binding using mouse spleen tissue WT
T4 construct: from tissue; host or cells: mouse spleen (wild type)
T4 sequence (P47936 whole entry): as above
Method: as §4
Saturation binding was performed with 0.05 to 2.4 nM compound of formula (I) and 40 μg of membrane protein. CP55940 (10 μM) was used to define nonspecific binding. Assay buffer consisted of 50 mmol L-1 Tris-HCl, 5 mmol L-1 MgCl2, 2.5 mmol L-1 EGTA, and 0.1% fatty acid-free BSA, pH 7.4. Assays were initiated by addition of membranes in a final volume of 250 μl/well. Assays were incubated for 2 h at room temperature and then vacuum filtered and rinsed with wash buffer (50 mmol L-1 Tris-HCl, 5 mmol L-1 MgCl2, 2.5 mmol L-1 EGTA, and 0.5% fatty acid-free BSA, pH 7.4) on a Filtermate cell harvester through Packard GF/B filters presoaked in 0.3% polyethylenimine.

CB2 receptors [4] = target: T2, CB2 receptors; test: Binding of HU-910 / [^3H]-HU-910 to CB2 receptors; conditions: CB2 receptors labeled with [^3H]-CP55940

T1 sequence (P21554 whole entry): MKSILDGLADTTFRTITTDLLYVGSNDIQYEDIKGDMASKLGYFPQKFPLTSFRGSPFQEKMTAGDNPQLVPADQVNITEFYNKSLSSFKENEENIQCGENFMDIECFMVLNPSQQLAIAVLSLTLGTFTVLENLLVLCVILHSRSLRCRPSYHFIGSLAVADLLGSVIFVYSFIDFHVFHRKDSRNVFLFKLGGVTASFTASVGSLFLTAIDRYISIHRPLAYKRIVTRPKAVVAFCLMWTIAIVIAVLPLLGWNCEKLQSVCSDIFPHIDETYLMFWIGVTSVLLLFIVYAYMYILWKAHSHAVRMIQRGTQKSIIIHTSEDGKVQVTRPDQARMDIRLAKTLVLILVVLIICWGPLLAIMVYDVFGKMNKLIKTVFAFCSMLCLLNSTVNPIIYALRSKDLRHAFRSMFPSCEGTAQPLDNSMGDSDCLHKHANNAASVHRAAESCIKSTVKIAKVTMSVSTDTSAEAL

**Q.** With `Cn1c(C(C)(C)C)cc(=NC(=O)c2cc(C(F)(F)F)ccc2OCC(C)(C)O)n1CC1CCC1` as the compound, how does the pKi (human CB1 receptors) read?
**A.** 5.41

**Q.** What about the pKi (CB2 receptors [1]) of the same compound?
**A.** 8.97

**Q.** With `[3H]C([3H])([3H])n1c(C(C)(C)C)c/c(=N\C(=O)c2cc(C(F)(F)F)ccc2OCC(C)(C)O)n1CC1CCC1` [Example 1, (NE)-N-[5-tert-butyl-2-(cyclobutylmethyl)-1-(tritritiomethyl)pyrazol-3-ylidene]-2-(2-hydroxy-2-methyl-propoxy)-5-(trifluoromethyl)benzamide] as the compound, how does the specific binding [2] read?
**A.** lack of specific binding

**Q.** And the specific binding (CB2 receptors [3])?
**A.** high specific binding

**Q.** What about the “saturability of specific binding” value (mouse CB2 receptors) of the same compound?
**A.** saturable

**Q.** What about the “CB2 receptor expression level (Bmax)” value (mouse CB2 receptors; saturation binding) of the same compound?
**A.** 430 fmol/mg

**Q.** And the pKd (mouse CB2 receptors; saturation binding, read-out: half maximal affinity (Kd))?
**A.** 9.24

**Q.** With `CCCCCCC(C)(C)c1cc(OC)c(C2=C[C@H]3CC[C@]2(CO)C3(C)C)c(OC)c1` [HU-910] as the compound, how does the “binding to CB2 receptors” value (CB2 receptors [4]) read?
**A.** selectively and competitively binds to CB2 receptors
